Source: patent publication US20250163057A1, “DCN-1 MODULATING COMPOUNDS AND METHODS OF USE THEREOF” (Cellarity, Inc., priority 2023, published 2025)

Tests used:
DCN1 protein = DCN1 protein (Homo sapiens (Human), UniProt Q96GG9); test: Intact Protein MS Analysis with the RapidFire-TOF System (covalent adduct formation); format: binding; settings: MS Emax; 400 nM DCN1, 3 hours at room temperature
Procedure, shortened: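 Tag-cleaved human DCN1 (400 nM) expressed in E. coli, in 25 mM Tris-HCl, 200 mM NaCl, 1 mM DTT, was incubated with 11 compound concentrations for 3 h at room temperature and quenched with 0.2% formic acid. Intact-protein Q-TOF MS with deconvolution detected the compound adduct mass.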

[1] = test system: Cullin-3 (CUL3) neddylation; test: AlphaLISA assay for Cullin-3 (CUL3) neddylation in TF 1 cells; format: cell-based; settings: 3 hours treatment
Procedure, shortened: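 TF 1 cells in unsupplemented IMDM treated with compound concentrations for 3 h, then lysed. CUL3 neddylation detected by AlphaLISA (biotinylated anti-NEDD8, anti-CUL3 acceptor beads overnight, streptavidin donor beads 1 h); normalized to vehicle (0%) and 1 μM DI-1548 (100%), IC50 from Hill fits.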

fetal hemoglobin protein = test: HbF HPLC Cell Culture Assay; format: cell-based; settings: for EC50: 336 h, HbF induction, Day 14 of culture; for Hemoglobin HPLC Ymax obs (%): relative to a control compound
Procedure, shortened: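 Cells were expanded in SFEM with CC100 and TPO, then differentiated through three erythroid media phases (EPO 2.5 U/ml, holo-transferrin, insulin, plus SCF, and IL-3 in phase 1). Compound was re-added at each passage (treatment day, days 0, 3, 5, 7, 10, 12). Fetal hemoglobin was quantified by HPLC on pellets from terminal day 14.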

Chain of DCN1 protein (Q96GG9 whole entry): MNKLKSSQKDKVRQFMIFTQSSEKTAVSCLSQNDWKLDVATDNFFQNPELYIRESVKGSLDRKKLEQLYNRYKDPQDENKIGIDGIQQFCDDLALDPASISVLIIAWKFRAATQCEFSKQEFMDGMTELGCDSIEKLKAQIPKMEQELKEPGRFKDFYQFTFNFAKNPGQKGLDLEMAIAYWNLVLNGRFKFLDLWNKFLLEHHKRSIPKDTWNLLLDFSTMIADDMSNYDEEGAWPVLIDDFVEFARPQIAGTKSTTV

CCN1C(=O)[C@@H](NC(=O)c2cccc(C(F)(F)F)c2)[C@@H](c2ccc(F)cc2)c2c([C@@H](C)NC#N)nn(-c3ccccc3)c21 [Compound I-73, N-((4S,5S)-3-((R)-1-cyanamidoethyl)-7-ethyl-4-(4-fluorophenyl)-6-oxo-1-phenyl-4,5,6,7-tetrahydro-1H-pyrazolo[3,4-b]pyridin-5-yl)-3-(trifluoromethyl)benzamide]
% Adduct Formation (DCN1 protein): +++ (MS Emax % adduct formation greater than 80.0 and less than or equal to 100.0) | IC50 ([1]; Homo sapiens, TF-1, 3 h): ≤ 0.1 µM | EC50 (fetal hemoglobin protein): > 0.2 µM | Hemoglobin HPLC Ymax obs (%) (fetal hemoglobin protein): ++ (Hemoglobin HPLC Ymax greater than 65.0 and less than or equal to 100.0)

CCN1C(=O)[C@@H](NC(=O)c2cccc(C(F)(F)F)c2)[C@@H](c2ccc(F)cc2)c2c(CN(C)C#N)nn(-c3ccccc3)c21 [Compound I-92]
% Adduct Formation (DCN1 protein): +++ (MS Emax % adduct formation greater than 80.0 and less than or equal to 100.0) | IC50 ([1]; Homo sapiens, TF-1, 3 h): 0.1 to 1 µM | EC50 (fetal hemoglobin protein): > 0.2 µM | Hemoglobin HPLC Ymax obs (%) (fetal hemoglobin protein): + (Hemoglobin HPLC Ymax greater than or equal to 0.0 and less than or equal to 65.0)

CCN1C(=O)[C@@H](NC(=O)c2cccc(C(F)(F)F)c2)[C@@H](c2ccc(F)cc2)c2c(C(=O)NC3(C#N)CC3)nn(-c3ccccc3)c21 [Compound I-112]
% Adduct Formation (DCN1 protein): +++ (MS Emax % adduct formation greater than 80.0 and less than or equal to 100.0) | IC50 ([1]; Homo sapiens, TF-1, 3 h): 0.1 to 1 µM | EC50 (fetal hemoglobin protein): > 0.2 µM | Hemoglobin HPLC Ymax obs (%) (fetal hemoglobin protein): +++ (Hemoglobin HPLC Ymax greater than 100.0)

CCN1C(=O)[C@@H](NC(=O)c2cccc(C(F)(F)F)c2)[C@@H](c2ccc(F)cc2)c2c(CNC#N)nn(-c3ccccc3)c21 [Compound I-140, N-[(4S, 5S)-3-[(cyanoamino)methyl]-7-ethyl-4-(4-fluorophenyl)-6-oxo-1-phenyl-4,5-dihydropyrazolo[3,4-b]pyridine-5-yl]-3-(trifluoromethyl) benzamide]
% Adduct Formation (DCN1 protein): +++ (MS Emax % adduct formation greater than 80.0 and less than or equal to 100.0) | IC50 ([1]; Homo sapiens, TF-1, 3 h): ≤ 0.1 µM | EC50 (fetal hemoglobin protein): > 0.2 µM | Hemoglobin HPLC Ymax obs (%) (fetal hemoglobin protein): + (Hemoglobin HPLC Ymax greater than or equal to 0.0 and less than or equal to 65.0)

CCN1C(=O)[C@@H](NC(=O)c2cccc(C(F)(F)F)c2)[C@@H](C2CC2)c2c(C(=O)N3[C@H](C#N)C[C@H]4C[C@H]43)nn(C3CCOCC3)c21 [Compound I-256, N-((4S,5S)-3-((1R,3S,5R)-3-cyano-2-azabicyclo[3.1.0]hexane-2-carbonyl)-4-cyclopropyl-7-ethyl-6-oxo-1-(tetrahydro-2H-pyran-4-yl)-4,5,6,7-tetrahydro-1H-pyrazolo[3,4-b]pyridin-5-yl)-3-(trifluoromethyl)benzamide]
% Adduct Formation (DCN1 protein): +++ (MS Emax % adduct formation greater than 80.0 and less than or equal to 100.0) | IC50 ([1]; Homo sapiens, TF-1, 3 h): ≤ 0.1 µM | EC50 (fetal hemoglobin protein): 0.05 to 0.2 µM | Hemoglobin HPLC Ymax obs (%) (fetal hemoglobin protein): ++ (Hemoglobin HPLC Ymax greater than 65.0 and less than or equal to 100.0)

CCN1C(=O)[C@@H](NC(=O)c2cccc(C(F)(F)F)c2)[C@@H](c2ccc(F)cc2)c2c(C(=O)N3[C@H](C#N)C[C@H]4C[C@H]43)nn(-c3ccccc3)c21 [Compound I-277]
% Adduct Formation (DCN1 protein): +++ (MS Emax % adduct formation greater than 80.0 and less than or equal to 100.0) | IC50 ([1]; Homo sapiens, TF-1, 3 h): ≤ 0.1 µM | EC50 (fetal hemoglobin protein): ≤ 0.05 µM | Hemoglobin HPLC Ymax obs (%) (fetal hemoglobin protein): ++ (Hemoglobin HPLC Ymax greater than 65.0 and less than or equal to 100.0)

CCN1C(=O)[C@@H](NC(=O)c2cccc(C(F)(F)F)c2)[C@@H](c2ccc(F)cc2)c2c(C(=O)N3CCC[C@H]3C#N)nn(-c3ccccc3)c21 [Compound I-278]
% Adduct Formation (DCN1 protein): +++ (MS Emax % adduct formation greater than 80.0 and less than or equal to 100.0) | IC50 ([1]; Homo sapiens, TF-1, 3 h): ≤ 0.1 µM | EC50 (fetal hemoglobin protein): > 0.2 µM | Hemoglobin HPLC Ymax obs (%) (fetal hemoglobin protein): + (Hemoglobin HPLC Ymax greater than or equal to 0.0 and less than or equal to 65.0)

CCN1C(=O)[C@@H](NC(=O)c2cccc(C(F)(F)F)c2)[C@@H](c2ccc(F)cc2)c2c(C(=O)N3CCNCC3C#N)nn(C3CCOCC3)c21 (some centres unmarked) [Compound I-334]
% Adduct Formation (DCN1 protein): +++ (MS Emax % adduct formation greater than 80.0 and less than or equal to 100.0) | IC50 ([1]; Homo sapiens, TF-1, 3 h): ≤ 0.1 µM | EC50 (fetal hemoglobin protein): 0.05 to 0.2 µM | Hemoglobin HPLC Ymax obs (%) (fetal hemoglobin protein): ++ (Hemoglobin HPLC Ymax greater than 65.0 and less than or equal to 100.0)

CCN1C(=O)[C@@H](NC(=O)c2cccc(C(F)(F)F)c2)[C@@H](c2ccc(F)cc2)c2c(C(=O)N3CCC[C@H]3C#N)nn(C3CCOCC3)c21 [Compound I-350]
% Adduct Formation (DCN1 protein): ++ (MS Emax % adduct formation greater than 30.0 and less than or equal to 80.0) | IC50 [1]: ≤ 0.1 µM | EC50 (fetal hemoglobin protein): ≤ 0.05 µM | Hemoglobin HPLC Ymax obs (%) (fetal hemoglobin protein): ++ (Hemoglobin HPLC Ymax greater than 65.0 and less than or equal to 100.0)

CCN1C(=O)[C@@H](NC(=O)c2cccc(C(F)(F)F)c2)[C@@H](C2CC2)c2c(C(=O)N3C[C@H](F)C[C@H]3C#N)nn(C3CCOCC3)c21 [Compound I-372]
% Adduct Formation (DCN1 protein): +++ (MS Emax % adduct formation greater than 80.0 and less than or equal to 100.0) | IC50 ([1]; Homo sapiens, TF-1, 3 h): ≤ 0.1 µM | EC50 (fetal hemoglobin protein): 0.05 to 0.2 µM | Hemoglobin HPLC Ymax obs (%) (fetal hemoglobin protein): ++ (Hemoglobin HPLC Ymax greater than 65.0 and less than or equal to 100.0)

CCN1C(=O)[C@@H](NC(=O)c2cccc(C(F)(F)F)c2)[C@@H](C2CC2)c2c(C(=O)N3C[C@H](OC)C[C@H]3C#N)nn(C3CCOCC3)c21 [Compound I-377]
% Adduct Formation (DCN1 protein): +++ (MS Emax % adduct formation greater than 80.0 and less than or equal to 100.0) | IC50 ([1]; Homo sapiens, TF-1, 3 h): ≤ 0.1 µM | EC50 (fetal hemoglobin protein): 0.05 to 0.2 µM | Hemoglobin HPLC Ymax obs (%) (fetal hemoglobin protein): ++ (Hemoglobin HPLC Ymax greater than 65.0 and less than or equal to 100.0)
